“Also recorded” adds a separate entry of the source. Like-named read-outs stand apart in the source and are kept apart here.
Experiments:
[1] = Pharmacokinetics of ASP7967 in mice after oral administration (LC-MS/MS); assay type: in vivo, mice (BALB/c cAJc1); settings: for Tmax: first sampling time point
Experimental: FIG. 10 Pharmacokinetics of ASP7967 in mice after oral administration. After oral administration at 100 mg kg^−1 to mice (BALB/c cAJc1), plasma and liver concentrations of ASP7967 were measured using liquid chromatography-tandem mass spectrometry (LC-MS/MS). ASP7967 concentrations in both plasma and liver reached maxima within the first sampling time point of 1 h and then decreased over time.

[2] = test system: aptazyme-based riboswitches (AC17-4); experiment: cells; assay type: cell-based; settings: Homo sapiens, 48 h; ligand as low as 5 μM in culture medium, HEK293 cells; read-out: activation of gene expression
Experimental: HEK293 cells were cultured in Dulbecco's modified Eagle's medium (DMEM) supplemented with 10% heat-inactivated FBS (Gibco) containing 2 mM L-glutamine and 100 units ml^−1 of penicillin-streptomycin (DMEM-FBS). Cells were kept in a 37° C. incubator with 5% CO2 and passaged regularly upon reaching 90% confluency. Approximately 20 h prior to transfection, the cells were trypsinized, diluted to ~2.7×10^5 cells ml^−1 and 100 μl per well were seeded onto a 96-well plate. Cells in each well were cotransfected with 100 ng of the EGFP-aptazyme plasmid and 20 ng of pCMV-mCherry^27 (transfection control) using 0.3 μl of TransIT-293 Transfection Reagent (Mirus) according to the manufacturer's instructions. […] Forty-eight hours after transfection, the medium in each well was replaced with 100 μl of phosphate buffered saline (PBS), and fluorescence intensity was measured by Infinite M1000 PRO microplate reader (Tecan). Fluorescence intensity was measured at 484 nm excitation/510 nm emission/5 nm bandwidth for EGFP, and at 587 nm excitation/610 nm emission/10 nm bandwidth for mCherry. Background fluorescence measured using untransfected cells was subtracted from the EGFP and mCherry fluorescence values. Then, EGFP fluorescence was normalized by mCherry fluorescence to account for variations in transfection efficiency and cell counts. […]

| SMILES | Tmax ([1]; mouse, liver, 100 mg kg^−1 oral, read-out: time of maximum liver concentration) | Kp ([1]; mouse, liver, 100 mg kg^−1 oral, read-out: concentration ratio of liver to plasma) | Tmax ([1]; mouse, plasma, 100 mg kg^−1 oral, read-out: time of maximum plasma concentration) | concentration in the liver / distribution (in words) ([1]; oral administration) | fold induction at 5 µM [2] |
| --- | --- | --- | --- | --- | --- |
| Fc1ccc(Nc2nc(NCc3ncccn3)nc(Nc3ccc(F)cc3)n2)cc1 [ASP7967] | ≤ 1 h | 2.7 to 30.6 | ≤ 1 h | high concentration; also recorded: distributed to the liver | > 10 |
| Fc1ccc(Nc2nc(NCc3ncccn3)nc(Nc3ccccc3)n2)cc1 [ASP2905, reference compound] |  |  |  |  | > 10 |

Reference: patent US20260327628A1, “AN RNA APTAMER THAT BINDS TO ASP7967 OR AN ANALOGUE THEREOF” (priority 2022, published 2026)
